Ends that are not written are not given here.
Tested on: cellular peroxide levels in human epidermal keratinocytes
Assay: Cellular peroxide levels in keratinocytes, DCFH-DA dye and flow cytometry, with and without exogenous H2O2
Format: cell-based
Details: for % Control (no H2O2), peroxide level / endogenous peroxide level (as defined by the 25% cutoff), in words: endogenous peroxide; for % Control (with H2O2), peroxide level / exogenous peroxide level (as defined by the 25% cutoff), in words: exogenous H2O2 added
Method: Hydrogen peroxide can induce damages to skin cells. The dermal protective efficacy of Pal-hexapeptide was assessed by measuring basal peroxide levels in the presence and absence of the compound.
Basal peroxide production, generated by normal cellular metabolism, induce gradual development of low levels of peroxide-specific cellular fluorescence.
Extracellular peroxides (e.g., H2O2 added exogenously) can permeate the cell membrane and cause a rapid and dramatic increase in the peroxide-specific fluorescence of the cell. Cellular peroxides levels can be measured by flow cytometry using the peroxide-specific dye, 2′,7′-dichlorofluorescein diacetate (DCFH-DA). DCFH-DA is initially non-fluorescent and is rapidly concentrated within living cells by an enzyme-dependent process. […] The results of the assay indicates if a test compound functions as an oxidant or an anti-oxidant in a cellular system. If the test article functions as an anti-oxidant, this assay can also be used to determine if the test compound can permeate the cell membrane to quench intracellular peroxide or if it can only affect extracellular peroxide levels (Bass et al., 1983, J. Immunol. 130:1910-1917; Bombick et al., 1992, Toxicol. Meth. 2:255-264).
Human primary keratinocytes, generally on the third passage, were seeded in T75 flasks and cultured until 70-80% confluent. A cell suspension was created and these cells were loaded with the dye DCFH-DA. The pre-incubated cells were exposed to dilutions of the Pal-hexapeptide having the amino acid sequence SEQ ID NO: 2 in two triplicate sets per dilution. One triplicate set was incubated with H2O2 (exogenous source of peroxide), and both sets were stained with Propidium Iodide. Cell viability and peroxide production were determined by fluorescence readings on a FACScan flow cytometer. Peroxide value increases or decreases of 25% or more compared to vehicle control values are considered biologically significant.

| Substance | % Control (no H2O2), peroxide level (0.1 mM) | % Control (with H2O2), peroxide level (0.1 mM) | % Control (no H2O2), peroxide level (1 mM) | endogenous peroxide level (as defined by the 25% cutoff), in words (1 mM) | % Control (with H2O2), peroxide level (1 mM) | exogenous peroxide level (as defined by the 25% cutoff), in words (1 mM) | % Control (no H2O2), peroxide level (10 mM) | endogenous peroxide level (as defined by the 25% cutoff), in words (10 mM) | % Control (with H2O2), peroxide level (10 mM) | exogenous peroxide level (as defined by the 25% cutoff), in words (10 mM) | % Control (with H2O2), peroxide level (10 mM, listed as MNTF 5-mer) | Cell viability, expressed as % of non-viable, treated versus not treated cells (keratinocytes, Propidium Iodide staining) | % Control (no H2O2), peroxide level (0.01 mM) | % Control (with H2O2), peroxide level (0.01 mM) |
| --- | --- | --- | --- | --- | --- | --- | --- | --- | --- | --- | --- | --- | --- | --- |
| FSRYA [CS2309] | 103.3% | 87.2% | 61.6% | decreased | 46.2% | decreased | 3.6% | decreased | −5.9% | decreased | 0% | – | – | – |
| FSRYAR [GM602, FSRYAR] | 94.9% | 92.9% | 73.6% | – | 56.0% | – | 25.0% | – | 14.3% | – | – | about the same | – | – |
| Pal 3 mer: palmitylated form of the MNTF 3 mer (SEQ ID NO:9) (Phe-Ser-Arg; also: palmitoyl group) | 98.7% | 96.1% | 101.1% | – | 71.9% | decreased | – | – | – | – | – | – | 99.4% | 101.0% |
| Pal 4mer: palmitylated form of the MNTF 4 mer (SEQ ID NO:11) (FSRY; also: palmitoyl group) | 96.8% | 96.6% | 81.8% | – | 67.2% | decreased | – | – | – | – | – | – | 97.2% | 102.4% |
| Pal 5 mer: palmitylated form of the MNTF 5 mer (SEQ ID NO:17) (FSRYA; also: palmitoyl group) | 92.8% | 96.0% | 83.6% | – | 62.2% | decreased | – | – | – | – | – | – | 95.3% | 98.6% |

Source: US8334253B2, “Cosmetic and dermatological formulations of MNTF peptides” (Dermacare Neuroscience Institute, priority 2008, dated 2012)
